Data: patent US20110092462A1, “USE OF HIGH-DOSE OXAZAPHOSPHORINE DRUGS FOR TREATING IMMUNE DISORDERS” (The Johns Hopkins University, priority 2005, published 2011)
Like-named read-outs stand apart in the source and are kept apart here.

Key:
[1] = tested on: patients with aggressive MS; settings: eight patients
Method: Open-label trial of patients with aggressive MS were given an up-front regimen of 50 mg/kg/d for four consecutive days. Enrolled patients had aggressive MS as defined by 2 or more total gadolinium enhancing lesions on each of two pretreatment MRI scans; at least one clinical exacerbation in the last year despite being on conventional MS therapy; and sustained increase of >1.0 on the EDSS in the preceding year.
All patients developed transient severe neutropenia, an expected consequence, followed by immune reconstitution in 10-17 days.

SAA patients [2] = settings: 10 SAA patients
[3] = tested on: previously untreated SAA patients
SAA patients [4] = settings: for mortality within 6 months after treatment / patients achieving remission: 38 newly diagnosed patients
From the text: Response was defined as ANC >1000/d1 and transfusion independence without growth factor support for >3 months. Relapse was defined as no longer meeting criteria for response. Development of paroxysmal nocturnal hemoglobinuria was monitored by flow cytometry.
The median age of the newly diagnosed patients was 40 (range 2-68) years.

[5] = tested on: patients with severe refractory autoimmune disorders
[6] = tested on: patients with moderate to severe systemic lupus erythematosus (SLE)
[7] = tested on: patient with paraneoplastic pemphigus
[8] = tested on: patient with pemphigus vulgaris
[9] = tested on: patients with refractory autoimmune hemolytic anemia
From the text: The median hemoglobin at the time of treatment was 6.7 (range; 5-10) g/dl and 8 of the 9 patients were dependent on erythrocyte transfusions.

[10] = tested on: HLA-specific antibodies in SAA patients
[11] = tested on: patients with myasthenia gravis; settings: 7 patients refractory to conventional immunosuppressive therapy
[12] = 50 mg/kg/d for four consecutive days
[13] = after the last dose of cyclophosphamide

Method for patients with HAA: Serology/PCR for HAV, HBV, HCV, EBV, and CMV were negative. All patients met criteria for very severe aplastic anemia pretreatment: bone marrow cellularity <25%, ANC <200 μL, platelet count <20,000/μL, absolute reticulocyte count <60,000/μL. Infection prophylaxis consisted of trimethoprim/sulfamethoxazole, G-CSF, and fluconazole.

O=P1(N(CCCl)CCCl)NCCCO1 (centres unmarked) [high-dose cyclophosphamide, cyclophosphamide]
brain atrophy [1]: slowed in several patients | clinical exacerbation following treatment [1]: No patient | improvement in the MSFC following treatment [1]: most patients | reduction in EDSS following treatment [1]: most patients | reduction or elimination of new and enhancing lesions on the MRI [1]: All patients | time to immune reconstitution after neutropenia [1, 12]: 10 to 17 days | transient severe neutropenia [1, 12]: All patients | unexpected grade 3 or 4 adverse event [1, 12]: no patients | complete remission (normocellular bone marrow, hemoglobin >13.0 g/dl, neutrophil count >[…]10^9/L, platelet count greater than 125×10^9/L) (SAA patients [2]): seven of ten | median time to a neutrophil count of 500 μL ([3]; 19 patients): 49 days | probability of achieving treatment-free remission ([3]; 19 patients, 95% CI 51-91%): 73% | probability of survival ([3]; at 24 months, 19 patients, 95% CI 59-95%): 84% | relapse or secondary clonal disorders ([3]; responding patients): No responding patients | PNH clone (SAA patients [4]; 12 patients with a PNH population): regressing in all 12 patients | durable remission (SAA patients [4]; 12 patients with a PNH population 0.5-40% of granulocytes, p=0.039): all 12 | patients in remission (SAA patients [4]; 17 patients who failed immunosuppressive therapy): nine | additional patient died from bacterial sepsis (SAA patients [4]; 18 months after treatment): 1 patient | mortality within 6 months after treatment (SAA patients [4]): 10.5% | patients achieving remission (SAA patients [4]; 95% CI 58-85%): 74% | mortality within 6 months after treatment (SAA patients [4]; all with vSAA): 4 patients | patients achieving remission (SAA patients [4]; most complete): 28 patients | patients in remission (SAA patients [4]; SAA (not very severe) subgroup of 23): 20 patients | patients surviving in remission (SAA patients [4]; eight patients with a severe infection at beginning of treatment): 5 patients | median time to ANC of 500 (SAA patients [4]; newly diagnosed patients): 50 days | median time to last platelet transfusion (SAA patients [4]; newly diagnosed patients): 99 days | median time to last red cell transfusion (SAA patients [4]; newly diagnosed patients): 181 days | patients relapsed (SAA patients [4]; newly diagnosed series): Two patients | progression to PNH or MDS (SAA patients [4]; newly diagnosed series): No patient | actuarial survival (SAA patients [4]; newly diagnosed, 95% CI 72-95%): 86% | patients surviving (SAA patients [4]; newly diagnosed, median follow-up 41 (range 6-111) months): 33/38 | patients alive (SAA patients [4]; patients who failed immunosuppressive therapy): Ten of the 17 | patients in remission (SAA patients [4]; vSAA subgroup of 15): 10 patients | duration of remission after treatment without further immune suppression (patients with HAA; 4 patients with hematopoietic responses): up to 6 years | autoimmune hepatitis (AIH) status (patients with HAA; Patient 2): remains in remission | hematologic response (patients with HAA; Patient 5, proceeded to unrelated BMT after 5 months): no hematopoietic response | hematopoietic recovery (patients with HAA; five patients, 50 mg/kg/day IV×4 days plus mesna): Four patients | durable remissions in hepatitis-associated aplastic anemia (patients with HAA; follow-up 1-6 years): 4 of 5 | median time to ANC >500/μL (patients with HAA; range 44-369): 51 days | median time to transfusion independence for platelets (patients with HAA; range 48-679): 160 days | median time to transfusion independence for erythrocytes (patients with HAA; range 57-679): 109 days | death from treatment failure (patients with HAA; series of 5 patients): one death | median time to a neutrophil count of 500 per μL [5, 13]: 17 days | median time to platelet transfusion independence [5, 13]: 16 days | complete remission ([5]; eight patients): five | marked clinical improvement ([5]; eight patients): Seven patients | partial remission ([5]; eight patients): 2 | deaths or fungal infections ([6]; 14 patients): no deaths or fungal infections | durable complete responses ([6]; 14 patients): 5 | median time to a neutrophil count of 500 μl ([6]; after the last dose, range 11 to 22 days, 14 patients): 14 days | improvement in Physicians Global Assessment, mean difference ([6]; p<0.0001): 1.3 | improvement in prednisone dosage, mean difference ([6]; p=0.01): 12.8 mg | improvement in systemic lupus erythematosus disease activity index, mean difference ([6]; p=0.042): 3.5 | median day to last platelet transfusion ([6]; range 0 to 23): 16 days | median transfusions of packed red blood cells required ([6]; range 2 to 5): 2 transfusions | pathogenic autoantibodies specific for the disease ([7]; after treatment): undetectable | remission ([7]; in vivo): durable complete remissions | need for blood products ([7]; one patient): did not require blood products | recovery to a neutrophil count of greater than 500 per μL ([7]; one patient): ≤ 15 days | pathogenic autoantibodies specific for the disease ([8]; after treatment): undetectable | remission ([8]; in vivo): durable complete remissions | began to recover neutrophils ([8]; one patient): ≤ 9 days | need for red cell transfusions ([8]; one patient): did not require red cell transfusions | platelet transfusions received ([8]; one patient): 2 | complete remission (normal untransfused hemoglobin for age and sex) ([9]; 9 patients): 6 patients | median time to a neutrophil count of 500 per μL ([9]; 9 patients): 16 days | median time to platelet transfusion independence ([9]; 9 patients): 15 days | partial remission (hemoglobin >10.0 g/dl without support of transfusions) ([9]; 9 patients): 3 patients | responded and became transfusion independent ([9]; 9 patients): All patients | patients able to discontinue steroids ([9]; in vivo): 7 of the 9 | relapses ([9]; median follow-up of 15 (range 4-29) months): no relapses | marked reduction in anti-HLA antibody titer ([10]; after treatment): All four responders | complete remission of the SAA ([10]; five patients with HLA-specific antibodies): four of these five | anti-HLA antibody completely eradicated ([10]; of four responders): three | markedly improved, and returned to full activity [11]: All of these patients
